Test results reported in paper PMC11912471 (Journal of Medicinal Chemistry, 2025).

Experiments:
[1] = system: Kelly neuroblastoma cells; experiment: Sulforhodamine B (SRB) cytotoxicity assay, Kelly neuroblastoma cells; assay type: cell-based
Protocol: (§1) Our strategy to identify novel ODC inhibitors was to first screen new analogs for ODC inhibition at 50 μM using our in vitro enzyme activity assay and purified human ODC (Table 1). Those showing significant inhibition were then titrated to provide an ODC IC50 followed by cell-based screening against both cancer (Kelly neuroblastoma) and noncancerous (neonatal fibroblasts) cell lines. For the cancer cell line, higher cytotoxicity was desired and for the noncancerous cell line counter screen, lower cytotoxicity was desired.
(§2) Normal primary human neonatal fibroblast cells (ATCC) were maintained in DMEM medium (Gibco) supplemented with 10% heat-inactivated fetal bovine serum (Hyclone), penicillin (100 IU/mL), and streptomycin (100 μg/mL), nonessential amino acids (0.1 mM) and sodium pyruvate (1 mM). Kelly neuroblastoma cells (Sigma-Aldrich) were maintained in RPMI medium (Corning) supplemented with 10% heat-inactivated fetal bovine serum (Hyclone), penicillin (100 IU/mL), and streptomycin (100 μg/mL). Cell lines were routinely monitored for mycoplasma contamination using the MycoAlert PLUS Mycoplasma Detection Kit (Lonza).
(§3) The colorimetric sulforhodamine B (SRB) assay was used to measure cytotoxicity following treatment with ODC inhibitors. Briefly, Kelly neuroblastoma cells and normal primary human neonatal fibroblast cells were plated in transparent flat 96-well plates and allowed to attach overnight. Cells were treated with control or 500 μM ODC inhibitor for 72 h. Cells were then fixed with 10% TCA at 4 °C for 1 h, washed with deionized water, and dried at room temperature. Cells were stained with 100 μL of 0.4% SRB in 1% acetic acid for 20 min at room temperature, rinsed five times with 1% acetic acid and allowed to dry at room temperature. One hundred μL of 10 mM Tris–HCl pH 7.0 was added to each well, shaken for 10 min at room temperature and absorbance was read at 540 nm. Absorbance values were normalized relative to control readings and converted to percentage by multiplying by one hundred. The percent cytotoxicity was then determined by subtracting the relative percentage of the ODC inhibitor treated readings from the control which is 100%.

[2] = design: method as in PMID 11004451; settings: due to an amino acid transporter; cited from earlier work
[3] = no reference printed for this property; cited from earlier work
[4] = system: polyamine levels in Kelly neuroblastoma cells; experiment: Polyamine analysis (HPLC of dansylated polyamines); assay type: cell-based; settings: 500 μM inhibitor
Protocol: Polyamines from Kelly neuroblastoma cells treated with 500 μM inhibitors were isolated, dansylated, and analyzed by HPLC. Briefly, polyamines were extracted and protonated in perchloric acid/sodium chloride buffer. To 100 μL of sample, 4.5 nmol of 1,7 diaminoheptane internal standard and 200 μL of 1 M sodium carbonate was added prior to dansylation with 400 μL of 5 mg/mL dansyl chloride (Sigma-Aldrich) for 60 min at 65 °C. One hundred μL of 1 M proline was then added to each reaction and incubated for 20 min at 65 °C. Polyamines were extracted from the mixture using methylene chloride. The methylene chloride was allowed to evaporate, the samples were resuspended in methanol and run through a C18 cleanup column. Samples were then analyzed using a Thermo Scientific/Dionex Ultimate 3000 HPLC, using a Syncronis C18 column (250 × 4.6 mm, […] pore size), and containing a fluorescence detector. The dansylated polyamine peaks were visualized by excitation at 340 nm and emission at 515 nm. The buffers used for elution of the polyamines were as follows: buffer A: 10 mM sodium heptanesulfonate/10% acetontrile at pH 3.4. Buffer B: 100% acetonitrile. The flow rate was 0.7 mL per minute. The column was equilibrated with 55% buffer B/45% buffer A prior to injection of the sample. Upon injection of the sample, elution of polyamines occurs in an isocratic solution of 55% buffer B/45% buffer A for 28 min. The solution was then slowly ramped to 95% buffer B/5% buffer A for 20 min. This gradient was held for 27 min to elute the spermine peak. The solution was then quickly dropped back to 55% buffer B/45% buffer A to re-equilibrate the column prior to the next sample being injected. Using the relative molar response derived from N-dansylated PA and 1,7 diaminoheptane standards, the amount of N-dansylated polyamines was calculated and normalized to total sample protein.

[5] = target: T1, purified human ODC enzyme (Homo sapiens, UniProt P11926); experiment: In vitro ODC enzyme activity assay; assay type: biochemical; settings: read-out: ODC biochemical inhibition % (50 μM)
T1 construct: His6 (C); made in house; host or cells: E. coli BL21(DE3)
T1 sequence (P11926 1-461): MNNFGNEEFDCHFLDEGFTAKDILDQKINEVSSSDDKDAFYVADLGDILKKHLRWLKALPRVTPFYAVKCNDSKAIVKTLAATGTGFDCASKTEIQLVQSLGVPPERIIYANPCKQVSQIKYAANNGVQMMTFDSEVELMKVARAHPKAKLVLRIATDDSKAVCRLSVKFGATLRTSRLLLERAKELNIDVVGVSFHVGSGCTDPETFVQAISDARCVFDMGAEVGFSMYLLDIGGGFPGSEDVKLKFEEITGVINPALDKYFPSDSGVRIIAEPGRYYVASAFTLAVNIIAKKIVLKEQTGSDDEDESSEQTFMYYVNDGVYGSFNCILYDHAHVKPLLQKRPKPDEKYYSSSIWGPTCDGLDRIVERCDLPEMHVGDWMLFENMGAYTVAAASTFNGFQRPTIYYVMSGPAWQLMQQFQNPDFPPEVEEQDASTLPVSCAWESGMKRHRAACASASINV
Protocol: as §1
In vitro ODC activity was measured using 100 ng of purified human ODC enzyme, as we previously described.[53],[99] ODC was incubated with increasing concentrations of inhibitors for 30 min at room temperature in a buffer containing 25 mM Tris and 0.1 mM EDTA. […] In the cell-based ODC activity assay, Kelly neuroblastoma cells that were treated with 500 μM inhibitors were harvested in a buffer containing 25 mM Tris HCl, 0.1 mM EDTA, and 2.5 mM DTT. […] For both the in vitro and cell-based assay, the microcentrifuge tubes were then placed into scintillation vials containing a piece of filter paper saturated with 200 μL of 0.1 M NaOH to capture the release of radiolabeled carbon dioxide. The samples were incubated in a 37 °C incubator while shaking for 30 min (in vitro) or 2 h (cell-based). The enzymatic reaction was stopped by adding 250 μL of 5 M sulfuric acid to each sample and incubating at 37 °C while shaking for 30 min. The microcentrifuge tubes were removed from the scintillation vials, and 5 mL of scintillation fluid was added. Disintegrations per minute (DPM) of each sample was measured using a TriCarb liquid scintillation counter (PerkinElmer). The specific ODC activity is expressed as nmol CO2/min/mg protein (in vitro) or pmol CO2/min/mg protein (cell-based). The individual ODC inhibitor IC50 values were determined using Graphpad Prism 8.

[6] = Sulforhodamine B (SRB) cytotoxicity assay, neonatal fibroblasts; assay type: cell-based, human; settings: human, normal primary neonatal fibroblast cells; 72 hrs @500 µM; supplement csv
Protocol: as §1, §2, §3

[7] = system: normal primary human neonatal fibroblast cells; experiment: as above; assay type: cell-based; settings: 500 μM
Protocol: as §1, §2, §3

[8] = cited from earlier work

## NCCC[C@](N)(C(=O)O)C(F)F [DFMO, α-difluoromethylornithine]
[1]; 72 h, 500 μM
  activity against Kelly neuroblastoma cells (in words): relatively moderate cytotoxic activity
[1]; 72 hr, 500 μM, percent cytotoxicity
  Cell cytotoxicity (72 hr @ 500 μM) Kelly Neuroblastoma: 26±9%
[1]; Kelly, 72 hrs @500 µM, supplement csv, read-out: Kelly Neuroblasoma Cells (72 hrs @500 µM) %cytotoxicity
  cytotoxicity at 500 µM: 26%
[2]
  permeability (in words): permeable
[3]
  water solubility (in words): water-soluble
[4]; Control = 2.57+0.47
  Kelly Treated Neuroblastoma Cells (Total Spm): 3.52+0.35
[4]; Control = 8.52+1.63
  Kelly Treated Neuroblastoma Cells (Spd): 1.99+1.06
[4]; Control = 9.71+1.31
  Kelly Treated Neuroblastoma Cells (Total Put): 0
[4]; Control = 20.81 +2.67
  Kelly Treated Neuroblastoma Cells (Total PA): 5.51+1.06
[4]; Kelly neuroblastoma cells, Figure 6B
  putrescine level (in words): undetected
[4]; Kelly neuroblastoma cells, relative to APA
  spermidine and spermine levels (in words): greatest reductions
[5]
  inhibition at 50 µM: 47%
[6]
  cytotoxicity at 72 h, 500 µM: 41%
[7]; 72 h
  cytotoxic activity against neonatal fibroblasts (in words): greater cytotoxic activity
[7]; 72 hr, percent cytotoxicity
  Cell cytotoxicity (72 hr @ 500 μM) Neonatal Fibroblasts: 41±12%
[8]
  clearance (in words): rapid clearance
